Results on 31 compounds are retold here after ChEMBL document CHEMBL1132850, “Design, synthesis and structure-activity relationship of a series of arginine aldehyde factor Xa inhibitors. Part 1: structures based on the (D)-Arg-Gly-Arg tripeptide sequence” (Bioorg Med Chem Lett, 2000).

Assay [1] is described as follows: Inhibitory activity against prothrombinase complex (IIase).
The target in assay [2] is Thrombin and coagulation factor X (Homo sapiens) (UniProt P00734+P00742). Kind of assay: Ratio of factor Xa inhibitory activity to that of factor IIa inhibitory activity. In kind it is protein assay.
Sequence of Thrombin and coagulation factor X (Homo sapiens) (P00742 whole entry, looked up, other chains not shown): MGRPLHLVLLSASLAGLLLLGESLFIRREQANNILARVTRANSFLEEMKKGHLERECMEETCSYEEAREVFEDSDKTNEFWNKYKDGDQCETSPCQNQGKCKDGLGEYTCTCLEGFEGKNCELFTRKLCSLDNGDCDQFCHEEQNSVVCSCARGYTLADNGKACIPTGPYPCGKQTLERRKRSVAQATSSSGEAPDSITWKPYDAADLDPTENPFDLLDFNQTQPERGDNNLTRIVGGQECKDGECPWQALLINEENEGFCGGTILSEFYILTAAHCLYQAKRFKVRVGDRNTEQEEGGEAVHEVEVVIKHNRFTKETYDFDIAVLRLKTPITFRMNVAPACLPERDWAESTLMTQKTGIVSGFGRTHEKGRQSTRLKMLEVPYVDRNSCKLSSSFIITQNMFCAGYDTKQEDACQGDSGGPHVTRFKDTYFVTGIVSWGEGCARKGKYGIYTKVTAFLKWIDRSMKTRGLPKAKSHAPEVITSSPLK
Assay [3] concerns the target Coagulation factor X (Homo sapiens, UniProt P00742). Kind of assay: Inhibitory activity against coagulation factor X.
Assay [4] deals with Prothrombin (Homo sapiens, UniProt P00734). Kind of assay: Inhibitory activity against coagulation factor II (thrombin).
The target in assay [5] is Coagulation factor X (Bos taurus, UniProt P00743). As to the kind of experiment: Second-order rate of substrate hydrolysis (kcat/Km) by bovine coagulation factor X.
Sequence of Coagulation factor X (Bos taurus, UniProt P00743) (P00743 41-180 limits assumed): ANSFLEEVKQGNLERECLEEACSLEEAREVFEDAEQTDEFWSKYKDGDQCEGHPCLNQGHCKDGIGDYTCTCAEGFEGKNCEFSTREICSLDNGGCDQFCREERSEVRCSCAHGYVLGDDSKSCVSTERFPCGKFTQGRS
Sequence of Coagulation factor X (Bos taurus, UniProt P00743) (P00743 234-492 limits assumed): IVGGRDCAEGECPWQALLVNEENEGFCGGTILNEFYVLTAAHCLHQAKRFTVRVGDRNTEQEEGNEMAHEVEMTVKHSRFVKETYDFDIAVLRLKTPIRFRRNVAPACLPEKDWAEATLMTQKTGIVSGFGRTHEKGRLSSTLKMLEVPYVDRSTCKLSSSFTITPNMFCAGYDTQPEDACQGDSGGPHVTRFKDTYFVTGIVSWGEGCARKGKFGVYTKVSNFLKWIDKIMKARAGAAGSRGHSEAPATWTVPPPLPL

One may read the IC50 as the point on the concentration scale where inhibition reaches its midpoint. For orientation: kcat/Km means the turnover number divided by the Michaelis constant.

Square brackets hold non-standard residues; d marks the D form. Peptide text beside a SMILES is read from it. * marks the point of attachment. ξ: configuration not given here. 1Nal = N[C@@H](Cc1cccc2ccccc12)C(=O)O; ξR = N=C(N)NCCCC(N)C(=O)O; Boc = CC(C)(C)OC(=O)*; ξP = O=C(O)C1CCCN1

Sequence of Coagulation factor X (Homo sapiens, UniProt P00742) (P00742 41-179 limits assumed): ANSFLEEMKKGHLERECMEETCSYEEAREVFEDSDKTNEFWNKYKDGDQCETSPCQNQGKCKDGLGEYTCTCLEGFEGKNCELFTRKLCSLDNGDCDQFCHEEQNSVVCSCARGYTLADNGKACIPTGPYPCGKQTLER
Sequence of Coagulation factor X (Homo sapiens, UniProt P00742) (P00742 235-488 limits assumed): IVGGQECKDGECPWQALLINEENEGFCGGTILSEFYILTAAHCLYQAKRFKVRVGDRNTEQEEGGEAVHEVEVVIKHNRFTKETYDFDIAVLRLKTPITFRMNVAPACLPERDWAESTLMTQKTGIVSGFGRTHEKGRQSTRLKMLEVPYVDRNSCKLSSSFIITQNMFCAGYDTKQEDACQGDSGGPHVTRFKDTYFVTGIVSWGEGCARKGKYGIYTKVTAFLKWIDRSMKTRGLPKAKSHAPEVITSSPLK

For `C/N=C(\N(C)C)N(C)CCCC[C@H](NC(=O)OC(C)(C)C)C(=O)NCC(=O)NC(C=O)CCCN=C(N)N` (some centres undefined), the IC50 in assay [1] came out at 12 µM. Moreover, in assay [2], the Ratio came to 30.

In the case of `C/N=C(\N(C)C)N(C)CCCC[C@H](NC(=O)OC(C)(C)C)C(=O)NCC(=O)NC(C=O)CCCNC(=N)N` (some centres undefined), the figures for the IC50 in assay [3] and in assay [4] were 3 µM and more than 100 µM, respectively.

For the compound `N=C(N)NCCCC(C=O)NC(=O)CNC(=O)[C@H](CCCN=C(N)N)NS(=O)(=O)CCc1ccccc1` (some centres undefined), the 50% inhibitory concentration (IC50) in assay [1] worked out at 0.038 µM. For the same compound, the Ratio in assay [2] amounted to 2300.

Take `N=C(N)NCCCC(C=O)NC(=O)CNC(=O)[C@H](CCCNC(=N)N)NS(=O)(=O)CCc1ccccc1` (some centres undefined): the figures for the IC50 in assay [3] and in assay [4] were 0.028 µM and 64 µM, respectively.

In the case of `N=C(N)NCCCC(C=O)NC(=O)CNC(=O)[C@H](CCCNC(=N)N)NS(=O)(=O)Cc1ccccc1` (some centres undefined), half-maximal inhibition in assay [4] (IC50) was put at 50 µM.

Consider `N=C(N)NCCCC(C=O)NC(=O)CNC(=O)[C@H](CCCNC(=N)N)NS(=O)(=O)CCc1cccc2ccccc12` (some centres undefined), for which the half-maximal inhibitory concentration (IC50) is 0.02 µM in assay [1], 0.027 µM in assay [3] and 39 µM in assay [4]. Also, the Ratio in assay [2] was 1500.

`CN(CC(=O)NC(C=O)CCCN=C(N)N)C(=O)[C@H](CCCN=C(N)N)NS(=O)(=O)Cc1ccccc1` (some centres undefined) showed an IC50 in assay [1] of 0.058 µM. Also, in assay [2], the Ratio was 100.

Consider `CN(CC(=O)NC(C=O)CCCNC(=N)N)C(=O)[C@H](CCCNC(=N)N)NS(=O)(=O)Cc1ccccc1` (some centres undefined), for which the IC50 was found to be 0.02 µM in assay [3] and 2 µM in assay [4].

Consider `CC(C)(C)OC(=O)N[C@@H](CCCNC(=N)N)C(=O)NCCC(=O)NC(C=O)CCCNC(=N)N` (some centres undefined), for which, in assay [4], the IC50 was more than 500 µM.

For the compound `N=C(N)NCCCC(C=O)NC(=O)CNC(=O)[C@H](CCCNC(=N)N)NC(=O)COc1ccc2ccccc2c1` (some centres undefined), in assay [4], the IC50 is more than 100 µM.

Take `CC(C)(C)OC(=O)N[C@@H](CCCN=C(N)N)C(=O)N1CCC[C@H]1C(=O)NC(C=O)CCCN=C(N)N` (stereo partly drawn) (Boc-Arg-Pro-[ξR]-aldehyde): the 50% inhibitory concentration (IC50) was 440 µM in assay [1], 60 µM in assay [3] and more than 500 µM in assay [4]. Moreover, the Ratio in assay [2] came out at 8.

With `CC(C)(C)OC(=O)N[C@@H](CCCN=C(N)N)C(=O)N[C@@H](Cc1cccc2ccccc12)C(=O)NC(C=O)CCCN=C(N)N` (stereo partly drawn) (Boc-Arg-[1Nal]-[ξR]-aldehyde), the IC50 in assay [1] was 0.34 µM. The Ratio in assay [2] is 300.

Regarding `CC(C)(C)OC(=O)N[C@@H](CCCNC(=N)N)C(=O)N[C@@H](Cc1cccc2ccccc12)C(=O)NC(C=O)CCCNC(=N)N` (stereo partly drawn) (Boc-Arg-[1Nal]-[ξR]-aldehyde), the IC50 in assay [3] is 0.14 µM; in assay [4], 42 µM.

Consider `CC(C)(C)OC(=O)N[C@@H](CCCN=C(N)N)C(=O)N1CCCC1C(=O)NC(C=O)CCCN=C(N)N` (stereo partly drawn) (Boc-Arg-[ξP]-[ξR]-aldehyde), for which, in assay [1], it took 0.021 µM to reach half-maximal inhibition (IC50). Moreover, the Ratio in assay [2] came to 4.

Turning to `CC(C)(C)OC(=O)N[C@@H](CCCNC(=N)N)C(=O)N1CCCC1C(=O)NC(C=O)CCCNC(=N)N` (stereo partly drawn) (Boc-Arg-[ξP]-[ξR]-aldehyde), the IC50 amounted to 0.046 µM in assay [3] and 0.2 µM in assay [4].

For the compound `N=C(N)NCCC[C@H](NC(=O)CNC(=O)[C@@H](CCCNC(=N)N)NC(=O)OCc1ccccc1)C(=O)Nc1ccc([N+](=O)[O-])cc1` (HELM PEPTIDE1{[O=C(OCc1ccccc1)[*:2]].[dR].G.R.[O=[N+]([O-])c1ccc(N[*:1])cc1]}$$$$V2.0), the kcat/Km in assay [5] turned out to be 2.27e+06 M⁻¹ s⁻¹.

Turning to `CC[C@H](C)[C@H](NC(=O)c1ccccc1)C(=O)N[C@@H](CCC(=O)O)C(=O)NCC(=O)N[C@@H](CCCN=C(N)N)C(=O)Nc1ccc([N+](=O)[O-])cc1` (HELM PEPTIDE1{[O=C(c1ccccc1)[*:2]].I.E.G.R.[O=[N+]([O-])c1ccc(N[*:1])cc1]}$$$$V2.0), the kcat/Km in assay [5] is 350000 M⁻¹ s⁻¹.

For the compound `CC(C)(C)OC(=O)NC(CCCN=C(N)N)C(=O)NC(C)(C)C(=O)N[C@H](C=O)CCCN=C(N)N` (single isomer, unassigned), the IC50 in assay [4] is more than 500 µM.

For the compound `CC(C)(C)OC(=O)NC(CCCCN=C(N)N)C(=O)NCC(=O)N[C@H](C=O)CCCN=C(N)N` (single isomer, unassigned), the IC50 came to 0.17 µM in assay [1] and 400 µM in assay [4]. Further, the Ratio in assay [2] was 4000.

Turning to `CC(=N)NCCCC(NC(=O)OC(C)(C)C)C(=O)NCC(=O)N[C@H](C=O)CCCN=C(N)N` (single isomer, unassigned), the IC50 in assay [1] amounted to 10 µM; in assay [3] it was 1 µM; in assay [4] it was 88 µM. Further, in assay [2], the Ratio worked out at 88.

Consider `CC(C)(C)OC(=O)NC(CCCNC(N)=O)C(=O)NCC(=O)N[C@H](C=O)CCCN=C(N)N` (single isomer, unassigned), for which the half-maximal inhibitory concentration (IC50) in assay [4] is more than 100 µM.

With `CC(C)(C)OC(=O)NC(CCCN)C(=O)NCC(=O)N[C@H](C=O)CCCN=C(N)N` (single isomer, unassigned), the half-inhibitory concentration (IC50) in assay [1] is 65 µM; in assay [3], 12 µM; in assay [4], more than 500 µM. For the same compound, the Ratio in assay [2] was 42.

Regarding `N=C(N)NCCCC(NC(=O)CC(=O)O)C(=O)NCC(=O)N[C@H](C=O)CCCNC(=N)N` (single isomer, unassigned), the 50% inhibitory concentration (IC50) in assay [3] was 0.1 µM; in assay [4], more than 100 µM.

`N=C(N)NCCCC(NC(=O)CCC(=O)O)C(=O)NCC(=O)N[C@H](C=O)CCCNC(=N)N` (single isomer, unassigned) showed a half-maximal inhibitory concentration (IC50) in assay [4] of more than 100 µM.

In assay [1], `N=C(N)NCCCC(NC(=O)CCc1ccccc1)C(=O)NCC(=O)N[C@H](C=O)CCCNC(=N)N` (single isomer, unassigned) returned a 50% inhibitory concentration (IC50) of 2 µM. Moreover, the Ratio in assay [2] came to 375.

For the compound `N=C(N)NCCC[C@@H](C=O)NC(=O)CNC(=O)C(CCCN=C(N)N)NC(=O)NCc1ccccc1` (single isomer, unassigned), the IC50 in assay [1] amounted to 0.18 µM; in assay [3] it was 0.22 µM; in assay [4], 170 µM. In addition, in assay [2], the Ratio amounted to 770.

In the case of `CCOC(=O)NC(CCCN=C(N)N)C(=O)NCC(=O)N[C@H](C=O)CCCN=C(N)N` (single isomer, unassigned), the half-inhibitory concentration (IC50) in assay [3] is 0.03 µM; in assay [4], more than 100 µM.

As for `NC(N)=NCCCC(N)C(=O)NCC(=O)N[C@H](C=O)CCCN=C(N)N` (single isomer, unassigned), the IC50 amounted to 0.828 µM in assay [1], 0.19 µM in assay [3] and 55 µM in assay [4]. The Ratio in assay [2] worked out at 290.

Take `CC(C)(C)OC(=O)NC(CCCCN)C(=O)NCC(=O)N[C@H](C=O)CCCN=C(N)N` (single isomer, unassigned): the IC50 in assay [4] was more than 100 µM.

In turn, `N=C(N)NCCCC(NC(=O)C(=O)O)C(=O)NCC(=O)N[C@H](C=O)CCCNC(=N)N` (single isomer, unassigned) gave a half-maximal inhibitory concentration (IC50) in assay [1] of 0.63 µM.

Take `CC(C)(C)OC(=O)NC(CCCN=C(N)N)C(=O)NCC(=O)N[C@H](C=O)CCCN=C(N)N` (single isomer, unassigned; 4): it took 2 µM to reach half-maximal inhibition in assay [3] (IC50). In other words, the single-digit micromolar range.
